Assay results: patent EP4458977A1, “SELF-ASSEMBLING PEPTIDE AMPHIPHILES AS RETROVIRAL TRANSDUCTION ENHANCERS” (Max-Planck-Gesellschaft zur Förderung der Wissenschaften …, priority 2023, dated 2024)
Where a SMILES comes first, the peptide text is derived from it. Where no end group is shown, it is not given here. [ ]: non-standard residue; d: D form. The star is where a group is joined. Palmitoyl = CCCCCCCCCCCCCCCC(=O)*

Key:
HIV-1 = settings: for enhancement of HIV-1 infection / transduction (in words): 6.5 µM, 1.3 µM, 0.26 µM;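 on all read-outs here: TZM-bl reporter cells exposed to HIV-1 with peptide fibrils, infection read out as β-galactosidase luminescence, compared with virus alone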
Protocol: HIV-1 Infection Assay with TZM-bl cells: The effect of peptide fibrils on HIV-1 infection was studied via a luminescence assay for β-galactosidase, which was reported by TZM-bl cells upon infection. The HIV-1 infection assay was conducted in three technical replicates and repeated in three independent experiments unless stated otherwise.

[1] = TEM of peptide assemblies (fibril formation / assembly); type: physicochemical; settings: for TEM morphology (in words): 1 mg/mL in PBS
Protocol: The peptides were predissolved in DMSO to a concentration of 10 mg/mL. The fibril formation was induced by further diluting the solution to a final incubation concentration of 650 µM or 1 mg/mL in PBS as indicated in the text and incubated for 1 d (1 day) at rt (room temperature, 20 °C - 25 °C). Other concentrations as described herein were achieved by further dilution of preformed fibrils.
(§1) Transmission electron microscopy (TEM) measurements, Thioflavin (ThT), zeta-potential measurements for fibril characterization were prepared and conducted according to prior art procedures. […] Fibrils were defined as distinct, if no visible structures could be identified in fluorescence and brightfield microscopy.

[2] = ATR-FT-IR determination of β-sheet content; type: physicochemical; settings: 1 mg/mL in PBS lyophilized; integral at 1630 cm^-1 relative to 1650-1700 cm^-1
Protocol: ATR-FT-IR: ATR-IR spectra acquisition and the calculation of β-sheet content were conducted according prior art procedures. Briefly, FT-IR spectra of solid samples were recorded after lyophilization of fibril solutions using a Bruker Tensor II spectrometer equipped with a diamond crystal as ATR element with a spectral resolution of 2 cm^-1, each spectrum was an average of 64 scans. The data was processed with Origin software. β-sheet amount was determined by calculating the integral of the peak at 1630 cm-1 (β-sheet) relative to the integral between 1650-1700 cm-1 (native structure) from the 2nd derivative of the FT-IR spectra.

HeLa cells = experiment: Confocal laser scanning microscopy and degradation study with PA library and HeLa cells; type: cell-based; settings: 2 µg added to 20.000 HeLa cells, 30 min
Protocol: In general, the procedure for determine whether a PA is degraded or not, is conducted by confocal laser scanning microscopy of Proteostat stained PAs which are added to Hela cells (2 µg peptide added to 20.000 cells). Microscopy is conducted at day 0 (d0, after 30 min of incubation) and at day 3 (d3, after 72 h of incubation). The number of aggregates >10 µm^2 is counted via 3D object counter in imaged in an area of 1008 µm × 1008 µm.
A PA is considered to be degradable if the number and the size of aggregates are reduced after 3 days. The efficiency is determined by the percentual degradation (aggregate number at d3 / aggregate number at d0). For the number of aggregation three technical replicates were evaluated for each sample. A large deviation represents a nonhomogeneous spatial distribution of aggregates.
Confocal laser scanning microscopy and degradation study with PA library and HeLa cells: Confocal laser scanning microscopy studies were performed for the visualization of the cell-PA interaction. HeLa cells were seeded one day prior to conducting the assay (20,000/well) in an 8-well IBIDI slide. […] The nucleus of the HeLa cells was stained with Hoechst 33342 (NucBlue™, Thermo Fisher Scientific). The peptide solution mixture was transferred to the HeLa cells and incubated for 30 min at 37°C before washing three times with PBS. […] For the evaluation of aggregate degradation, the samples were further incubated at 37°C for 3 d and analyzed without any additional washing step. […] The number of aggregates were determined by counting aggregates larger than the threshold 10 µm^2 in an area of 1008 × 1008 µm and repeated in three technical triplicates.

[3] = Fluorescence microscopy of ThT-stained fibrils (µm-sized aggregates); type: physicochemical; settings: 1 mg/mL stained with 50 µM ThT
Protocol: as §1
Fluorescence microscopy: 1 µL Fibrils (1 mg mL^-1) were stained with 9 µL, 50 µM ThT. 10 µL of the stained fibrils (0.1 mg mL^-1) were placed on a microscopy glass. Fluorescence microscopy measurements were performed on a Leica DMi8 microscope with 10x air objective and equipped with a Leica MC170 HD camera with a filter setting λem = 527/30 nm upon excitation at λex = 480/40 nm) and processed with the Leica LASX software.

Compound | infectivity enhancement at 1.3 µM concentration compared to virus only infection (in words) (HIV-1) | enhancement of HIV-1 infection / transduction (in words) (HIV-1) | Infectivity enhancing N fold at 1.3 µM (HIV-1; relative to virus only) | TEM morphology (in words) [1] | Assembly without hydrophob residue ([1]; corresponding peptide without hydrophobic moiety) | Assembly ([1]; peptide amphiphile) | β-sheet amount [2] | association with cellular membranes (HeLa cells) | fluorescent, µm-sized aggregates (ThT staining) [3] | TEM morphology (in words) ([1]; listed as KGVPGVGK)
CCCCCCCCCCCCCCCC(=O)N[C@@H](CCCNC(=N)N)C(=O)N[C@@H](CCCNC(=N)N)C(=O)N[C@@H](Cc1c[nH]c2ccccc12)C(=O)N[C@@H](CCC(N)=O)C(=O)N[C@@H](Cc1c[nH]c2ccccc12)C(=O)N[C@@H](CCCNC(=N)N)C(N)=O [Pat22, C16-RRWQWR-NH2] (Palmitoyl-RRWQWR-NH2) | does not enhance infectivity | no infectivity enhancement can be observed | 0±0 N fold | fibrillar morphologies | No | Yes | 0% | no association with cellular membranes |  | 
CC(C)[C@@H](N)C(=O)N[C@@H](C(=O)N[C@@H](C(=O)N[C@H](C)C(=O)N[C@H](C)C(=O)N[C@H](C)C(=O)N[C@H](CCCCN)C(=O)N[C@H](CCCCN)C(=O)N[C@H](CCCCN)C(N)=O)C(C)C)C(C)C [Pat33, vvvaaakkk-NH2] (H-[dV][dV][dV][dA][dA][dA][dK][dK][dK]-NH2) | cannot enhance infectivity |  |  | no fibrillar morphologies but amorphous aggregates |  |  | 45% |  | no fluorescent, µm-sized aggregates | 
AGGRVK-NH2 [Pat37, AGGRVK-NH2] | cannot enhance infectivity |  |  | no fibrillar morphologies |  |  | 0% |  | no fluorescent, µm-sized aggregates | 
AKAVGK-NH2 [Pat50, AKAVGK-NH2] | cannot enhance infectivity |  |  | no fibrillar morphologies but amorphous aggregates |  |  | 33% |  | no fluorescent, µm-sized aggregates | 
ALAAGKK-NH2 [Pat39, ALAAGKK-NH2] | cannot enhance infectivity |  |  | no fibrillar morphologies |  |  | 0% |  | no fluorescent, µm-sized aggregates | 
AQAKAK-NH2 [Pat35, AQAKAK-NH2] | cannot enhance infectivity |  |  | no fibrillar morphologies but amorphous aggregates |  |  | 29% |  | no fluorescent, µm-sized aggregates | 
AVAKKK-NH2 [Pat40, AVAKKK-NH2] | cannot enhance infectivity |  |  | no fibrillar morphologies but amorphous aggregates |  |  | 29% |  | no fluorescent, µm-sized aggregates | 
GGGSSKKK-NH2 [Pat47] |  | not potent enhancers of HIV-1 infection |  | no fibrillar morphologies |  |  | 10% |  | no fluorescent, µm-sized aggregates | 
GKVGSK-NH2 [Pat49, GKVGSK-NH2] |  | not potent enhancers of HIV-1 infection |  | no fibrillar morphologies |  |  | 4% |  | no fluorescent, µm-sized aggregates | 
IIQKIK-NH2 [Pat34, IIQKIK-NH2] |  | not potent enhancers of HIV-1 infection |  | no fibrillar morphologies |  |  | 31% |  | no fluorescent, µm-sized aggregates | 
KGVPGVGK-NH2 [Pat44] | do not enhance infectivity |  |  | fibrillar morphologies |  |  | 22% |  |  | unexpectedly forming fibrils by themselves
KIISFK-NH2 [Pat51, KIISFK-NH2] |  | not potent enhancers of HIV-1 infection |  | no fibrillar morphologies |  |  | 38% |  | no fluorescent, µm-sized aggregates | 
KYIHQNYTKALAGKLV-NH2 [Pat45] |  | not potent enhancers of HIV-1 infection |  | no fibrillar morphologies |  |  | 34% |  | no fluorescent, µm-sized aggregates | 
LLLKK-NH2 [Pat42, LLLKK-NH2] | cannot enhance infectivity |  |  | no fibrillar morphologies |  |  | 33% |  | no fluorescent, µm-sized aggregates | 
LNGGVKK-NH2 [Pat38, LNGGVKK-NH2] |  | not potent enhancers of HIV-1 infection |  | no fibrillar morphologies |  |  | 0% |  | no fluorescent, µm-sized aggregates | 
RRWQWR-NH2 [Pat41, RRWQWR-NH2] | cannot enhance infectivity |  |  | amorphous aggregates |  |  | 0% | no association with cellular membranes |  | 
VVAAHHH-NH2 [Pat43, VVAAHHH-NH2] |  | not potent enhancers of HIV-1 infection |  | no fibrillar morphologies |  |  | 0% |  | no fluorescent, µm-sized aggregates | 
WEALKK-NH2 [Pat36, WEALKK-NH2] | cannot enhance infectivity |  |  | no fibrillar morphologies but amorphous aggregates |  |  | 31% |  | no fluorescent, µm-sized aggregates | 
